Test results from ChEMBL document CHEMBL1201862, “PubChem BioAssay data set” (2004).
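Tested at 5 concentrations; 48 h exposure; 96-well plates; endpoints linearly interpolated, else capped at highest concentration. GI50 = concentration required for 50% inhibition of growth.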 Active and inactive are the calls of the source. Rule as the data show it: active = GI50 up to about 1.1 µM and inactive = higher.

How the values were obtained:
Assay in all cases: NCI tumour cell line growth inhibition, 48 h
SF-268 = test system: SF-268
M14 = test system: M14
OVCAR-8 = test system: OVCAR-8
SK-MEL-2 = test system: SK-MEL-2
NCI-H23 = test system: NCI-H23
786-0 = test system: 786-0
MCF7 = test system: MCF7
SN12C = test system: SN12C
NCI/ADR-RES = test system: NCI/ADR-RES
DU-145 = test system: DU-145
BT-549 = test system: BT-549
DLD-1 = test system: DLD-1
SK-MEL-5 = test system: SK-MEL-5
HT-29 = test system: HT-29
Hs-578T = test system: Hs-578T
MOLT-4 = test system: MOLT-4
SR = test system: SR
CAKI-1 = test system: CAKI-1
HCT-116 = test system: HCT-116
SW-620 = test system: SW-620
RPMI-8226 = test system: RPMI-8226
DMS-273 = test system: DMS-273
KM12 = test system: KM12
Malme-3M = test system: Malme-3M
HL-60 = test system: HL-60
HOP-62 = test system: HOP-62
A549 = test system: A549
COLO 205 = test system: COLO 205
NCI-H226 = test system: NCI-H226
MDA-MB-231 = test system: MDA-MB-231
TK-10 = test system: TK-10
PC-3 = test system: PC-3
HCT-15 = test system: HCT-15
SNB-19 = test system: SNB-19
SF-295 = test system: SF-295
OVCAR-5 = test system: OVCAR-5
UACC-62 = test system: UACC-62
SK-OV-3 = test system: SK-OV-3
A498 = test system: A498
RXF 393 = test system: RXF 393
U-251 = test system: U-251
HOP-92 = test system: HOP-92
HCC 2998 = test system: HCC 2998
OVCAR-3 = test system: OVCAR-3
CCRF-CEM = test system: CCRF-CEM
UO-31 = test system: UO-31
NCI-H522 = test system: NCI-H522
IGROV-1 = test system: IGROV-1
NCI-H460 = test system: NCI-H460
MDA-MB-435 = test system: MDA-MB-435
UACC-257 = test system: UACC-257
SK-MEL-28 = test system: SK-MEL-28
MDA-N = test system: MDA-N
OVCAR-4 = test system: OVCAR-4
EKVX = test system: EKVX
ACHN = test system: ACHN
T47D = test system: T47D
SF-539 = test system: SF-539
LOX IMVI = test system: LOX IMVI
SNB-75 = test system: SNB-75
K562 = test system: K562

COc1ccc2c(c1)-c1nn(CCCN(C)C)c3ccc([N+](=O)[O-])c(c13)N2
GI50 (SF-268): 0.207 µM (active) | GI50 (M14): 0.361 µM (active) | GI50 (OVCAR-8): 0.121 µM (active) | GI50 (SK-MEL-2): 0.676 µM (active) | GI50 (NCI-H23): 0.398 µM (active) | GI50 (786-0): 0.0991 µM (active) | GI50 (MCF7): 0.239 µM (active) | GI50 (SN12C): 0.103 µM (active) | GI50 (NCI/ADR-RES): 0.124 µM (active) | GI50 (DU-145): 0.254 µM (active) | GI50 (BT-549): 1.23 µM (inactive) | GI50 (DLD-1): 0.181 µM (active) | GI50 (SK-MEL-5): 0.33 µM (active) | GI50 (HT-29): 0.102 µM (active) | GI50 (Hs-578T): 0.48 µM (active) | GI50 (MOLT-4): 0.106 µM (active) | GI50 (SR): 0.13 µM (active) | GI50 (CAKI-1): 0.261 µM (active) | GI50 (HCT-116): 0.0787 µM (active) | GI50 (SW-620): 0.0719 µM (active) | GI50 (RPMI-8226): 0.201 µM (active) | GI50 (DMS-273): 0.161 µM (active)

CC(=O)O[C@H]1CC[C@@]2(C)C(=CC[C@H]3[C@@H]4C[C@H](N5CCCC5)[C@H](OC(C)=O)[C@@]4(C)CC[C@@H]32)C1
GI50 (KM12): > 100 µM (inactive) | GI50 (Malme-3M): 33.7 µM (inactive) | GI50 (SF-268): > 100 µM (inactive) | GI50 (M14): 18.2 µM (inactive) | GI50 (HL-60): > 45.7 µM (inactive) | GI50 (OVCAR-8): > 100 µM (inactive) | GI50 (HOP-62): > 100 µM (inactive) | GI50 (A549): > 100 µM (inactive) | GI50 (COLO 205): > 100 µM (inactive) | GI50 (NCI-H226): > 100 µM (inactive) | GI50 (MDA-MB-231): > 100 µM (inactive) | GI50 (TK-10): > 100 µM (inactive) | GI50 (PC-3): > 100 µM (inactive) | GI50 (HCT-15): > 100 µM | GI50 (SNB-19): > 100 µM (inactive) | GI50 (SK-MEL-2): > 100 µM (inactive) | GI50 (NCI-H23): > 100 µM (inactive) | GI50 (SF-295): > 100 µM (inactive) | GI50 (786-0): > 100 µM (inactive) | GI50 (OVCAR-5): > 100 µM (inactive) | GI50 (MCF7): > 100 µM (inactive) | GI50 (SN12C): > 100 µM (inactive) | GI50 (UACC-62): > 56.1 µM (inactive) | GI50 (NCI/ADR-RES): > 100 µM (inactive) | GI50 (DU-145): > 100 µM (inactive) | GI50 (SK-OV-3): > 100 µM (inactive) | GI50 (A498): > 100 µM (inactive) | GI50 (RXF 393): > 100 µM (inactive) | GI50 (BT-549): > 100 µM (inactive) | GI50 (U-251): > 100 µM (inactive) | GI50 (HOP-92): > 100 µM (inactive) | GI50 (HCC 2998): > 93.3 µM (inactive) | GI50 (OVCAR-3): > 86.3 µM (inactive) | GI50 (SK-MEL-5): 23 µM (inactive) | GI50 (CCRF-CEM): > 67.8 µM (inactive) | GI50 (HT-29): 21.7 µM (inactive) | GI50 (UO-31): > 100 µM (inactive) | GI50 (NCI-H522): > 100 µM (inactive) | GI50 (IGROV-1): > 100 µM (inactive) | GI50 (Hs-578T): > 100 µM (inactive) | GI50 (NCI-H460): > 100 µM (inactive) | GI50 (MDA-MB-435): 32 µM (inactive) | GI50 (MOLT-4): > 81.5 µM (inactive) | GI50 (SR): > 100 µM (inactive) | GI50 (UACC-257): 38 µM (inactive) | GI50 (SK-MEL-28): 39.8 µM (inactive) | GI50 (CAKI-1): > 100 µM (inactive) | GI50 (MDA-N): > 51.1 µM (inactive) | GI50 (OVCAR-4): > 100 µM (inactive) | GI50 (HCT-116): > 56.5 µM (inactive) | GI50 (EKVX): > 100 µM (inactive) | GI50 (SW-620): > 100 µM (inactive) | GI50 (ACHN): > 100 µM (inactive) | GI50 (RPMI-8226): > 60.1 µM (inactive) | GI50 (T47D): > 100 µM (inactive) | GI50 (SF-539): 29.3 µM (inactive) | GI50 (LOX IMVI): 49.2 µM (inactive) | GI50 (SNB-75): > 100 µM (inactive) | GI50 (K562): 33.1 µM (inactive)
